Assay results published in PMC11945486, “TAS1R2/TAS1R3 Single-Nucleotide Polymorphisms Affect Sweet Taste Receptor Activation by Sweeteners: The SWEET Project” (Nutrients, 2025).
Read-outs that look alike come from different tables or passages of the source. No end group written: not given here.

T1: human TAS1R2-WT/TAS1R3-S446N (Homo sapiens, UniProt Q7RTX0+Q8TE23, S446N)
T1 construct: expressed in transfected cells; host or cells: HEK293T stably expressing Gα16gust44
T1 sequence (Q8TE23 20-839): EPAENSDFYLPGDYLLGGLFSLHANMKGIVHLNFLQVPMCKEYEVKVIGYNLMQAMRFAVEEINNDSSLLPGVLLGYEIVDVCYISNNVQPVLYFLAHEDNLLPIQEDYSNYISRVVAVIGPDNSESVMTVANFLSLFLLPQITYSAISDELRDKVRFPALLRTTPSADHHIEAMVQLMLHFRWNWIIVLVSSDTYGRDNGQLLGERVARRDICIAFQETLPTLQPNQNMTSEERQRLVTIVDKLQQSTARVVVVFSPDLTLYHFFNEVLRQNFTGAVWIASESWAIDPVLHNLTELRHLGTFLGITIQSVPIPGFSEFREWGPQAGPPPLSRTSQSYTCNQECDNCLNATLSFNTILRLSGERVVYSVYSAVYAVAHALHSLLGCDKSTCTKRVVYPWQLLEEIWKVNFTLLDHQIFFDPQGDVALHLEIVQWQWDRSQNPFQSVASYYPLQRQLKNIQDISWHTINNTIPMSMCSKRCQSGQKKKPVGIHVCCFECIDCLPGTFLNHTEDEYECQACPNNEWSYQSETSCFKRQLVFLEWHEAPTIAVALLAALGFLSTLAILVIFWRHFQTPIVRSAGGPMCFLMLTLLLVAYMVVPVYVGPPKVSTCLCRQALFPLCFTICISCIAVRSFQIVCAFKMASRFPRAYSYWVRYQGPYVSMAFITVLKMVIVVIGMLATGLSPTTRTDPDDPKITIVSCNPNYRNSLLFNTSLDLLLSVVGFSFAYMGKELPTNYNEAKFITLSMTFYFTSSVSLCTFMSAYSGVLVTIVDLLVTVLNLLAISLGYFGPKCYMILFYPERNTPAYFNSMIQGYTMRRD
T1 sequence (Q7RTX0 21-852 S446N): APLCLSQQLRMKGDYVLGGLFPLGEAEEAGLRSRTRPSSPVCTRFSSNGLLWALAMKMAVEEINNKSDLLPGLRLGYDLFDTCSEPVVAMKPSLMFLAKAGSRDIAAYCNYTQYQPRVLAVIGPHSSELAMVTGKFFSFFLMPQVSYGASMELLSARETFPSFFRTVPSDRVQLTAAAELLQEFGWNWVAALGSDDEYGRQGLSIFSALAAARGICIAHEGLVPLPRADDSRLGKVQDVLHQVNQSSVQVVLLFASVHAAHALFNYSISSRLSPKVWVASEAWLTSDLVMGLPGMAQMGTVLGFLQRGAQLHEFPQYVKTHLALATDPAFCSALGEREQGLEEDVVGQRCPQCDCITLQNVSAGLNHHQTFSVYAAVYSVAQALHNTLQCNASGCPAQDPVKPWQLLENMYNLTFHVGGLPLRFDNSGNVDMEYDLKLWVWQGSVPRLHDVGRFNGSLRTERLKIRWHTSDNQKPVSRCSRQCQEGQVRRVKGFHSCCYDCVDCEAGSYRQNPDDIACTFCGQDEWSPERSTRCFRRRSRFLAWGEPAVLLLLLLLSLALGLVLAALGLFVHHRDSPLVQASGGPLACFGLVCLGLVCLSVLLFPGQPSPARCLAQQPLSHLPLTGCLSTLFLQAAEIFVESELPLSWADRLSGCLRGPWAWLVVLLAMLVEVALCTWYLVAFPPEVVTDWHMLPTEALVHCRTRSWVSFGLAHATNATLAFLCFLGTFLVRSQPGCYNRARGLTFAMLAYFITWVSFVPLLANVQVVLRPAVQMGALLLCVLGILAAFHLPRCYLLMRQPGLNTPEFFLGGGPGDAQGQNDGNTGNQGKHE

B1: thaumatin (protein)
chain: ATFEIVNRCSYTVWAAASKGDAALDAGGRQLNSGESWTINVEPGTKGGKIWARTDCYFDDSGSGICKTGDCGGLLRCKRFGRPPTTLAEFSLNQYGKDYIDISNIKGFNVPMDFSPTTRGCRGVRCAADIVGQCPAKLKAPGGGCNDACTVFQTSEYCCTTGKCGPTEYSRFFKRLCPDAFSYVLDKPTTVTCPGSSNYRVTFCPTA
modifications: Eight disulfides
notes: sweet-tasting plant protein, E957

Molecular target: T1, human TAS1R2-WT/TAS1R3-S446N
Experiment: Calcium mobilisation assay, TAS1R2-WT with TAS1R3 variant S446N
Type: cell-based
Conditions: for Max ΔF/F0: maximal signal amplitude
From the text: The coding sequences for TAS1R2 and TAS1R3 were commercially synthesised, and the human codon was optimised for expression in human cells. The coding sequences of human TAS1R2 and TAS1R3 were subcloned and inserted into the mammalian expression vectors pcDNA6/myc-HisA and pcDNA4/myc-HisA (Invitrogen; Thermo Fisher Scientific; Illkirch, France) between the EcoRI and NotI restriction sites, generating the plasmids pcDNA6-TAS1R2 and pcDNA4-TAS1R3, respectively. To increase protein expression in mammalian cells, an upstream start codon was used, which was a sequence called MAX, corresponding to the QBI SP163 element also described in pcDNA4-HisMax (Invitrogen; Thermo Fisher Scientific; Illkirch, France). To measure the expression level of the receptor by immunohistochemistry, we used the FLAG sequence ([…]) in the C-terminal position, which encodes the FLAG tag epitope. SNP variants of TAS1R2 and TAS1R3 were constructed based on […], respectively, using site-directed mutagenesis (Genewiz; Leipzig, Germany).
The HEK293T cells were kindly provided by Jay P. Slack (Givaudan Flavors Corporation; Cincinnati, OH, USA). HEK293T cells stably transfected with Gα16gust44 [43, 67] were seeded in poly-D-lysine-coated clear-bottom black 96-well plates (0.35 × 10^5 cells/well) in high-glucose DMEM supplemented with 2 mM GlutaMAX, 10% dialysed foetal bovine serum with penicillin/streptomycin and G418 (400 μg/mL) at 37 °C and 6.3% CO2 in a humidified atmosphere as previously reported. […] As a negative control, HEK293T cells were mock-transfected with the empty expression vector. After a further 24 h of incubation, the HEK293T cells were washed with C1 buffer (130 mM NaCl, 5 mM KCl, 10 mM HEPES pH 7.4 and 2 mM CaCl2). The 96-well plates containing the cells were then stimulated with sweet-tasting compounds. […] Different concentration ranges were tested depending on the sweet compound injected. The Ca^2+ changes were expressed as fractional changes in fluorescent light intensity: ΔF/F = (F − F0)/F0, where F was the fluorescent light intensity at each point, and F0 was the value of emitted fluorescent light prior to stimulus application. To calculate dose–response relationships, the changes in fluorescence upon stimulus application were averaged, mock-subtracted and baseline-corrected. The dose–response data obtained were adjusted using a 4-parameter logistic equation. The half-maximal effective concentrations (EC50 values) and maximal signal amplitudes were calculated using SigmaPlot software (version 15.0) (Systat Software; San Jose, CA, USA).
For in vitro calcium mobilisation assay performed on hTAS1R2-SNPs, hTAS1R3-SNPs and mTAS1R3-I60T, 6 to 7 concentrations were tested for each sweet compound, plus buffer alone. All concentration–receptor combinations were measured in duplicate, and each experiment was repeated at least 4 times (8 wells/concentration). Results were expressed for each concentration as ΔF/F mean ± SEM and represented as dose–response curves.

| Molecule | R1 = Variant EC50/WT EC50 | Max ΔF/F0 | EC50 (read-out: EC50) [µM] | EC50 (brazzein) [µg/mL] |
| --- | --- | --- | --- | --- |
| CC1=CC(=O)NS(=O)(=O)O1 [Acesulfame K, acesulfame K] | 0.8 | 0.19 ± 0.01 | 487 ± 78 |  |
| O=S(=O)(O)NC1CCCCC1 [Cyclamate, cyclamate] |  |  | 1480 ± 45 |  |
| C[C@H](CC[C@@H](O[C@@H]1O[C@H](CO[C@@H]2O[C@H](CO)[C@@H](O)[C@H](O)[C@H]2O)[C@@H](O)[C@H](O)[C@H]1O[C@@H]1O[C@H](CO)[C@@H](O)[C@H](O)[C@H]1O)C(C)(C)O)[C@H]1CC[C@@]2(C)[C@@H]3CC=C4[C@@H](CC[C@H](O[C@@H]5O[C@H](CO[C@@H]6O[C@H](CO)[C@@H](O)[C@H](O)[C@H]6O)[C@@H](O)[C@H](O)[C@H]5O)C4(C)C)[C@]3(C)[C@H](O)C[C@]12C [Mogroside V, mogroside V] | 1.5 | 0.86 ± 0.01 | 47.7 ± 1.5 |  |
| COc1ccc(CCC(=O)c2c(O)cc(O[C@@H]3O[C@H](CO)[C@@H](O)[C@H](O)[C@H]3O[C@@H]3O[C@@H](C)[C@H](O)[C@@H](O)[C@H]3O)cc2O)cc1O [NHDC, neohesperidin dihydrochalcone] | 1.0 | 1.07 ± 0.06 | 49.4 ± 8.6 |  |
| COC(=O)[C@H](Cc1ccccc1)NC(=O)[C@H](CC(=O)O)NCCC(C)(C)C [Neotame] | 1.0 | 0.63 ± 0.02 | 1.22 ± 0.1 |  |
| C=C(C)[C@@H]1CC=C(/C=N/O)CC1 [Perillartine, perillartine] | 1.1 | 1.42 ± 0.26 | 15.3 ± 8.6 |  |
| C=C1C[C@@]23CC[C@H]4[C@@](C)(CCC[C@@]4(C)C(=O)O[C@@H]4O[C@H](CO)[C@@H](O)[C@H](O[C@@H]5O[C@H](CO)[C@@H](O)[C@H](O)[C@H]5O)[C@H]4O[C@@H]4O[C@H](CO)[C@@H](O)[C@H](O)[C@H]4O)[C@@H]2CC[C@]1(O[C@@H]1O[C@H](CO)[C@@H](O)[C@H](O[C@@H]2O[C@H](CO)[C@@H](O)[C@H](O)[C@H]2O)[C@H]1O[C@@H]1O[C@H](CO)[C@@H](O)[C@H](O)[C@H]1O)C3 [Rebaudioside M, rebaudioside M] | 0.9 | 0.64 ± 0.03 | 36.9 ± 3.6 |  |
| OC[C@H]1O[C@H](O[C@]2(CCl)O[C@H](CCl)[C@@H](O)[C@@H]2O)[C@H](O)[C@@H](O)[C@H]1Cl [Sucralose] | 1.4 | 0.68 ± 0.02 | 155 ± 11 |  |
| brazzein (QDKCKKVYENYPVSKCQLANQCNYDCKLDKHARSGECFYDEKRNLQCICDYCEY; ends and bridges not checked; cysteine pairing not given here; UniProt P56552 1-54, looked up) [sweet-tasting protein obtained by recombinant production using the yeast Pichia pastoris] | 1.1 | 0.98 ± 0.03 |  | 120.8 ± 9.3 |
| thaumatin | 0.9 | 0.70 ± 0.04 |  |  |
| B1 |  |  | 9.8 ± 1.1 |  |
